Laboratory results taken from patent US4647586A, “Pharmaceutical oil-in-water type micro-emulsion” (priority 1984, dated 1987).
“Also recorded” adds a separate entry of the source.

Legend:
[1] = tested on: Charles River-strain SD male rats; assay: Toxicity test, single tail vein administration, 3 days observation; assay type: in vivo
Procedure: (§1) Charles River-strain SD male rats (6 weeks old; body weight 160-170 g), 5 per group, were used. […] The doses were 50, 100, 200 and 400 mg/kg. As a control, an aqueous solution of sodium 4-biphenylylacetate was administered.

[2] = as above; assay type: in vivo, Charles River-strain SD male rats; details: rat, in vivo, iv; read-out: Doses with no change in general symptoms and autopsy
Procedure: as §1

[3] = tested on: Carrageenin-induced paw edema; assay: Carrageenin-induced paw edema in rats [Test 2]; assay type: in vivo, SD-strain male rats
Procedure: (a) Experimental animals: SD-strain male rats (120-180 g).
A micro-emulsion containing ethyl 4-biphenylylacetate prepared as in Examples 11, 12, 13 and 14 given hereinafter was administered at a dose of 5 ml per kg of the animals. Venolipid® (Morishita Pharmaceutical Co., Ltd.) was used as a vehicle control. As control drugs, a solution or suspension of ethyl 4-biphenylylacetate in physiological saline containing 0.5% Cremophor EL® (Sigma Chemical Company, a solubilizing agent), 0.2% of polyethylene glycol 400 and 10% of dimethyl sulfoxide, a physiological saline solution of sodium 4-biphenylylacetate and a physiological saline solution of Aspirin DL-lysine [Venopirin®, Green Cross Co.] were used. As the vehicle control of the control drugs, the above solvents were used.
A 1% carrageenin solution in physiological saline was injected subcutaneously in an amount of 0.05 ml into the planter surface of the left hind paw of each rat via a 25 gauge needle fitted to a 0.25 ml syringe. One hour after carrageenin injection, the rats were randomized on the basis of the edema volume, and intravenous administration of the drugs and vehicles followed immediately. The volume of the left hind paw was measured by a plethysmometer (Ugo Basile) prior to the injection of the carrageenin solution and at 2, 3, 4, 5 and 6 hours after the carrageenin injection. As the volume of edema, an increase in the paw volume was taken.
The inhibition percents were calculated in accordance with the same calculation formula as in Test 1.

[4] = tested on: abnormal 3-legged gait (brewers yeast-inflamed paw); assay: Reversal of abnormal 3-legged gait in rats (analgesic activity); assay type: in vivo, SD-strain male rats; details: Rattus norvegicus, iv, read-out: ED50 (dose causing at least 50% reversal of gait score in 50% of the rats)
Procedure: (a) Experimental animals: SD-strain male rats (120-165 g).
(b) Test drugs: The same as in A-1 [Test 2].
A 40% suspension of dried brewers yeast in physiological saline was injected (0.25 ml/rat) subcutaneously into the planter surface of the left hind paw of each rat. Three hours later, the walking gait on a wire mesh platform was assessed for each rat.
0 = Normal gait in the presence of a severely
0.5 = As above, with intermittent mild limping.
1.0 = Constant limping, but continuous use of
1.5 = Limping with occasional 3-legged gait
2.0 = Continous 3-Legged gait and/or only the
Any rat not showing a gait score of 2 was eliminated from this test. Drugs and vehicles were then administered intravenously. Measurements of the gait were made at 1, 2, 3 and 4 hours after drug administration.

[5] = Distribution to the tissue; details: 10 mg/kg tail vein, as 4-biphenylylacetic acid
Procedure: (a) Experimental animals: Wistar-strain male rats (body weight 60-220 g), 6 per group.
The rats were periodically killed, and the major organs were extracted. The concentration of the drug in the tissues were measured by the conventional HPLC method.

[6] = tested on: Carrageenin-induced paw edema; assay: Carrageenin-induced paw edema in rats [Test 1]; assay type: in vivo, Wistar strain male rats
Procedure: A-1: Effect of inhibiting carrageenin-induced paw edema
(a) Experimental animals: Wistar strain male rats (body weight 160-220 g), 7 per group.
As a control drug, an aqueous solution of sodium 4-biphenylylacetate was used.
The volume of the left hind paw of each rat was measured with a plethysmometer (supplied by Ugo Basile Company). A 1% carrageenin solution as an inflammation inducer was injected subcutaneously into the left hind paw of each rat to induce paw edema. The volume of the paw of the rat was measured before the administration of carrageenin and every hour after the administration up to 6 hours. […] The test drugs were intravenously administered 2 hours after the injection of carrageenin. The edema inhibition rate were calculated by the following equation. [formula]
Ec: the volume of edema of the control group to which only the solvent was administered at each time (average value)
Et: the volume of edema in the drug-administered group at each time (average value)

O=C([O-])Cc1ccc(-c2ccccc2)cc1.[Na+]
Findings: autopsy ([1]; 50 mg/kg i.v.): No change
Findings: general symptoms ([1]; 50 mg/kg i.v.): No change
Number of the dead ([1]; 50 mg/kg i.v. as 4-biphenylylacetic acid): 0/5
Findings: general symptoms (spontaneous motion) ([1]; 100 mg/kg i.v.): motion decreased
Number of the dead ([1]; 100 mg/kg i.v. as 4-biphenylylacetic acid): 0/5
Findings: general symptoms ([1]; 200 mg/kg i.v.): tarry feces
Number of the dead ([1]; 200 mg/kg i.v. as 4-biphenylylacetic acid): 3/5
Number of the dead ([1]; 400 mg/kg i.v. as 4-biphenylylacetic acid): 3/5
Findings: autopsy ([1]; at least 100 mg/kg i.v.): Peptic ulcer occurred; also recorded: intestinal adherence
Findings: general symptoms ([1]; at least 100 mg/kg i.v.): Body weight increase inhibition
Findings: general symptoms ([1]; at least 200 mg/kg i.v.): pallor
Doses at which changes occurred ([1]; rat, in vivo): more than 100 mg/kg
NOAEL at 72 h [2]: ≥ 50 mg/kg
Inhibition (%) ([3]; 1.25 mg/kg i.v. as 4-biphenylylacetic acid, 2 h after carrageenin): 6.6%
Inhibition (%) ([3]; 1.25 mg/kg i.v. as 4-biphenylylacetic acid, 3 h after carrageenin): 0%
Inhibition (%) ([3]; 1.25 mg/kg i.v. as 4-biphenylylacetic acid, 4 h after carrageenin): 8.5%
Inhibition (%) ([3]; 1.25 mg/kg i.v. as 4-biphenylylacetic acid, 5 h after carrageenin): 5.2%
Inhibition (%) ([3]; 1.25 mg/kg i.v. as 4-biphenylylacetic acid, 6 h after carrageenin): 6.1%
Inhibition (%) ([3]; 2.5 mg/kg i.v. as 4-biphenylylacetic acid, 2 h after carrageenin): 19,7%
Inhibition (%) ([3]; 2.5 mg/kg i.v. as 4-biphenylylacetic acid, 3 h after carrageenin): 11.7%
Inhibition (%) ([3]; 2.5 mg/kg i.v. as 4-biphenylylacetic acid, 4 h after carrageenin): 18.6%
Inhibition (%) ([3]; 2.5 mg/kg i.v. as 4-biphenylylacetic acid, 5 h after carrageenin): 20.7%
Inhibition (%) ([3]; 2.5 mg/kg i.v. as 4-biphenylylacetic acid, 6 h after carrageenin): 10.2%
Inhibition (%) ([3]; 5.0 mg/kg i.v. as 4-biphenylylacetic acid, 2 h after carrageenin): 9.8%
Inhibition (%) ([3]; 5.0 mg/kg i.v. as 4-biphenylylacetic acid, 3 h after carrageenin): 6.6%
Inhibition (%) ([3]; 5.0 mg/kg i.v. as 4-biphenylylacetic acid, 4 h after carrageenin): 20.3%
Inhibition (%) ([3]; 5.0 mg/kg i.v. as 4-biphenylylacetic acid, 5 h after carrageenin): 19.0%
Inhibition (%) ([3]; 5.0 mg/kg i.v. as 4-biphenylylacetic acid, 6 h after carrageenin): 30.6%
Inhibition (%) ([3]; 10.0 mg/kg i.v. as 4-biphenylylacetic acid, 2 h after carrageenin): 23.0%
Inhibition (%) ([3]; 10.0 mg/kg i.v. as 4-biphenylylacetic acid, 3 h after carrageenin): 28.3%
Inhibition (%) ([3]; 10.0 mg/kg i.v. as 4-biphenylylacetic acid, 4 h after carrageenin): 35.6%
Inhibition (%) ([3]; 10.0 mg/kg i.v. as 4-biphenylylacetic acid, 5 h after carrageenin): 29.3%
Inhibition (%) ([3]; 10.0 mg/kg i.v. as 4-biphenylylacetic acid, 6 h after carrageenin): 30.6%
ED30 ([3]; Rattus norvegicus, iv, read-out: ED30 (dose required to cause a 30% inhibition of edema volume)): 10.5 mg/kg
ED50 [4]: 7.1 mg/kg
Tissue concentration at 30 seconds after administration [5]: concentrations above those at which they showed a pharmacological activity
Edema inhibitory effect (inhibition rate, %) ([6]; 2.5 mg/kg i.v. as 4-biphenylylacetic acid, 2 hours after carrageenin (time of dosing)): 0%
Edema inhibitory effect (inhibition rate, %) ([6]; 2.5 mg/kg i.v. as 4-biphenylylacetic acid, 3 hours after carrageenin): 8.4%
Edema inhibitory effect (inhibition rate, %) ([6]; 2.5 mg/kg i.v. as 4-biphenylylacetic acid, 4 hours after carrageenin): 13.2%
Edema inhibitory effect (inhibition rate, %) ([6]; 2.5 mg/kg i.v. as 4-biphenylylacetic acid, 5 hours after carrageenin): 17.1%
Edema inhibitory effect (inhibition rate, %) ([6]; 2.5 mg/kg i.v. as 4-biphenylylacetic acid, 6 hours after carrageenin): 19.8%
Edema inhibitory effect (inhibition rate, %) ([6]; 5.0 mg/kg i.v. as 4-biphenylylacetic acid, 2 hours after carrageenin (time of dosing)): 0%
Edema inhibitory effect (inhibition rate, %) ([6]; 5.0 mg/kg i.v. as 4-biphenylylacetic acid, 3 hours after carrageenin): 9.5%
Edema inhibitory effect (inhibition rate, %) ([6]; 5.0 mg/kg i.v. as 4-biphenylylacetic acid, 4 hours after carrageenin): 15.1%
Edema inhibitory effect (inhibition rate, %) ([6]; 5.0 mg/kg i.v. as 4-biphenylylacetic acid, 5 hours after carrageenin): 17.4%
Edema inhibitory effect (inhibition rate, %) ([6]; 5.0 mg/kg i.v. as 4-biphenylylacetic acid, 6 hours after carrageenin): 20.8%
ED20 ([6]; Rattus norvegicus, iv, 2 h, read-out: ED20 (20% edema inhibitory effect)): 8.5 mg/kg
Edema inhibitive effect versus the micro-emulsions ([6]; i.v.): less effect
